Data reported in patent US20050171358A1 (priority 2002, published 2005).

Columns and labels:
[1] = tested on: Pyricularia oryzae; type: in vivo; conditions: 200 ppm spray on rice (Koshihikari, 3 leaf stage), inoculated next day; lesion numbers on third leaves after 7 days in green house, graded by Table 5
[2] = tested on: Colletotrichum lagenarium; conditions: 200 ppm spray on cucumber (3 leaf stage), inoculated next day; lesion numbers on first and second leaves after 7 days in green house, graded by Table 5

With `Cc1ccc(C(=O)NCc2cc(-c3cccnc3)no2)cc1` [III-218, N-{[3-(3-pyridyl)-5-isoxazolyl]methyl}-4-methylbenzamide] the “Evaluation (effect for rice blast)” value [1] was 3 (6˜10) and the “Evaluation (effect for cucumber anthracnose)” value [2] was 4 (1˜5).
In the case of `Cc1ccc(C(=O)NCc2cc(-c3ccncc3)no2)cc1` [III-219, N-{[3-(4-pyridyl)-5-isoxazolyl]methyl}-4-methylbenzamide], the “Evaluation (effect for rice blast)” value [1] is reported as 3 (6˜10) and the “Evaluation (effect for cucumber anthracnose)” value [2] is reported as 3 (6˜10).
In the case of `COc1ccc(C(=O)NCc2cc(-c3ccsc3)no2)cc1` [III-220, N-{[3-(3-thienyl)-5-isoxazolyl]methyl}-4-methoxylbenzamide], the “Evaluation (effect for rice blast)” value [1] is reported as 3 (6˜10) and the “Evaluation (effect for cucumber anthracnose)” value [2] is reported as 3 (6˜10).
For `C/C=C/C=C/c1cc(CNC(=O)c2ccc(OC)cc2)on1` [III-221, N-{[3-(1,3-pentadienyl)-5-isoxazolyl]methyl}-4-methoxylbenzamide], the “Evaluation (effect for rice blast)” value [1] was 2 (11˜20) and the “Evaluation (effect for cucumber anthracnose)” value [2] was 2 (11˜20).
For `COc1ccc(C(=O)NCc2cc(-c3cc4ccccc4n3C)no2)cc1` [III-223, N-{[3-(1-methylindol-2-yl)-5-isoxazolyl]methyl}-4-methoxybenzamide], the “Evaluation (effect for rice blast)” value [1] was 5 (0) and the “Evaluation (effect for cucumber anthracnose)” value [2] was 5 (0).
For `COc1ccc(C(=O)NCc2cc(-c3nc4ccccc4s3)no2)cc1` [III-224, N-{[3-(benzo[d]thiazol-2-yl)-5-isoxazolyl]methyl}-4-methoxybenzamide], the “Evaluation (effect for rice blast)” value [1] was 2 (11˜20) and the “Evaluation (effect for cucumber anthracnose)” value [2] was 2 (11˜20).
In the case of `COc1ccc(C(=O)NCc2cc(C(C)C)no2)cc1` [III-225, N-[(3-isopropyl-5-isoxazolyl)methyl]-4-methoxybenzamide], the “Evaluation (effect for rice blast)” value [1] is reported as 4 (1˜5) and the “Evaluation (effect for cucumber anthracnose)” value [2] is reported as 4 (1˜5).
With `Cc1ccc(-c2cc(CNC(=O)C3CCCC3)on2)cc1` [III-227, N-{[3-(4-tolyl)-5-isoxazolyl]methyl}cyclopentanecarboxamide] the “Evaluation (effect for rice blast)” value [1] was 5 (0) and the “Evaluation (effect for cucumber anthracnose)” value [2] was 5 (0).
In the case of `Cc1ccc(-c2cc(CNC(=O)C3CCC3)on2)cc1` [III-228, N-{[3-(4-tolyl)-5-isoxazolyl]methyl}cyclobutanecarboxamide], the “Evaluation (effect for rice blast)” value [1] is reported as 4 (1˜5) and the “Evaluation (effect for cucumber anthracnose)” value [2] is reported as 3 (6˜10).
`COc1ccc(C(=O)NCc2cc(CC(C)C)no2)cc1` [III-229, N-[(3-isobutyl-5-isoxazolyl)methyl]-4-methoxybenzamide] was tested, and the “Evaluation (effect for rice blast)” value [1] was 5 (0) and the “Evaluation (effect for cucumber anthracnose)” value [2] was 5 (0).
For `CCC(CC)c1cc(CNC(=O)c2ccc(OC)cc2)on1` [III-230, N-{[3-(1-ethylpropyl)-5-isoxazolyl]methyl}-4-methoxybenzamide], the “Evaluation (effect for rice blast)” value [1] was 5 (0) and the “Evaluation (effect for cucumber anthracnose)” value [2] was 5 (0).
`COc1ccc(C(=O)NCc2cc(-c3ccccc3Cl)no2)cc1` [III-231, N-{[3-(2-chlorophenyl)-5-isoxazolyl]methyl}-4-methoxybenzamide] was tested, and the “Evaluation (effect for rice blast)” value [1] was 5 (0) and the “Evaluation (effect for cucumber anthracnose)” value [2] was 5 (0).
With `COc1ccc(C(=O)NCc2cc(-c3nc(-c4ccccc4)no3)no2)cc1` [III-232, N-{[3-(3-phenyl-1,2,4-oxadiazol-5-yl)-5-isoxazolyl]methyl]-4-methoxybenzamide] the “Evaluation (effect for rice blast)” value [1] was 3 (6˜10) and the “Evaluation (effect for cucumber anthracnose)” value [2] was 2 (11˜20).
`CCCCc1cc(CNC(=O)c2ccc(OC)cc2)on1` [III-235, N-[(3-butyl-5-isoxazolyl)methyl]-4-methoxybenzamide] was tested, and the “Evaluation (effect for rice blast)” value [1] was 4 (1˜5) and the “Evaluation (effect for cucumber anthracnose)” value [2] was 4 (1˜5).
`CCC(C)c1cc(CNC(=O)c2ccc(OC)cc2)on1` (stereo not shown) [III-236, N-[(3-sec-butyl-5-isoxazolyl)methyl]-4-methoxybenzamide] was tested, and the “Evaluation (effect for rice blast)” value [1] was 4 (1˜5) and the “Evaluation (effect for cucumber anthracnose)” value [2] was 4 (1˜5).
For `COc1ccc(C(=O)NCc2cc(C(C)(C)C)no2)cc1` [III-237, N-[(3-tert-butyl-5-isoxazolyl)methyl]-4-methoxybenzamide], the “Evaluation (effect for rice blast)” value [1] was 3 (6˜10) and the “Evaluation (effect for cucumber anthracnose)” value [2] was 3 (6˜10).
In the case of `COc1ccc(C(=O)NCc2cc(C3CCCCC3)no2)cc1` [III-238, N-[(3-cyclohexyl-5-isoxazolyl)methyl]-4-methoxybenzamide], the “Evaluation (effect for rice blast)” value [1] is reported as 4 (1˜5) and the “Evaluation (effect for cucumber anthracnose)” value [2] is reported as 5 (0).
With `Cc1ccc(-c2cc(CNC(=O)c3cc(Cl)nc(Cl)c3)on2)cc1` [III-240, N-{[3-(4-tolyl)-5-isoxazolyl]methyl}-2,6-dichloropyridine-4-carboxamide] the “Evaluation (effect for rice blast)” value [1] was 2 (11˜20) and the “Evaluation (effect for cucumber anthracnose)” value [2] was 2 (11˜20).
For `CC(C)c1cc(CNC(=O)c2cc(Cl)nc(Cl)c2)on1` [III-243, N-[(3-isopropyl-5-isoxazolyl)methyl]-2,6-dichloropyridine-4-carboxamide], the “Evaluation (effect for rice blast)” value [1] was 2 (11˜20) and the “Evaluation (effect for cucumber anthracnose)” value [2] was 1 (21˜41).
In the case of `CCCc1cc(CNC(=O)c2ccc(OC)cc2)on1` [III-245, N-[(3-propyl-5-isoxazolyl)methyl]-4-methoxybenzamide], the “Evaluation (effect for rice blast)” value [1] is reported as 5 (0) and the “Evaluation (effect for cucumber anthracnose)” value [2] is reported as 5 (0).
With `CCCC(C)c1cc(CNC(=O)c2ccc(OC)cc2)on1` (stereo not shown) [III-246, N-[(3-sec-pentyl-5-isoxazolyl)methyl]-4-methoxybenzamide] the “Evaluation (effect for rice blast)” value [1] was 3 (6˜10) and the “Evaluation (effect for cucumber anthracnose)” value [2] was 3 (6˜10).
In the case of `COc1ccc(C(=O)NCc2cc(-c3ccc(C)o3)no2)cc1` [III-247, N-{[3-(2-methylfuran-5-yl)-5-isoxazolyl]methyl}-4-methoxybenzamide], the “Evaluation (effect for rice blast)” value [1] is reported as 5 (0) and the “Evaluation (effect for cucumber anthracnose)” value [2] is reported as 5 (0).
With `CCCCCC#Cc1cc(CNC(=O)c2ccc(OC)cc2)on1` [III-248, N-{[3-(1-heptynyl)-5-isoxazolyl]methyl}-4-methoxybenzamide] the “Evaluation (effect for rice blast)” value [1] was 3 (6˜10) and the “Evaluation (effect for cucumber anthracnose)” value [2] was 2 (11˜20).
For `COc1ccc(C(=O)NCc2cc(C(OC)OC)no2)cc1` [III-249, N-[(3-dimethoxymethyl-5-isoxazolyl)methyl]-4-methoxybenzamide], the “Evaluation (effect for rice blast)” value [1] was 2 (11˜20) and the “Evaluation (effect for cucumber anthracnose)” value [2] was 2 (11˜20).
In the case of `COc1ccc(C(=O)NCc2cc(ON=C(C)C)no2)cc1` [III-250, N-[(3-isopropyliminoxy-5-isoxazolyl)methyl]-4-methoxybenzamide], the “Evaluation (effect for rice blast)” value [1] is reported as 2 (11˜20) and the “Evaluation (effect for cucumber anthracnose)” value [2] is reported as 2 (11˜20).
With `Cc1ccc(C(=O)NCc2cc(CC(C)C)no2)cc1` [III-251, N-[(3-isobutyl-5-isoxazolyl)methyl]-4-methylbenzamide] the “Evaluation (effect for rice blast)” value [1] was 5 (0) and the “Evaluation (effect for cucumber anthracnose)” value [2] was 5 (0).
`CC(C)Cc1cc(CNC(=O)c2ccc(Cl)cc2)on1` [III-252, N-[(3-isobutyl-5-isoxazolyl)methyl]-4-chlorobenzamide] was tested, and the “Evaluation (effect for rice blast)” value [1] was 5 (0) and the “Evaluation (effect for cucumber anthracnose)” value [2] was 5 (0).
For `CC(C)Cc1cc(CNC(=O)c2ccc(Cl)cc2Cl)on1` [III-253, N-[(3-isobutyl-5-isoxazolyl)methyl]-2,4-dichlorobenzamide], the “Evaluation (effect for rice blast)” value [1] was 5 (0) and the “Evaluation (effect for cucumber anthracnose)” value [2] was 5 (0).
In the case of `CC(C)Cc1cc(CNC(=O)c2ccc(Cl)c(Cl)c2)on1` [III-255, N-[(3-isobutyl-5-isoxazolyl)methyl]-3,4-dichlorobenzamide], the “Evaluation (effect for rice blast)” value [1] is reported as 4 (1˜5) and the “Evaluation (effect for cucumber anthracnose)” value [2] is reported as 4 (1˜5).
